This is an account of results in ChEMBL document CHEMBL1133403 (Bioorg Med Chem Lett, 2000).

Active and inactive are the calls of the source. The rule behind the calls is not given here. A value given as a limit tells only on which side of the number the result lay.

Assay [1] has as its target T1, Glucocorticoid receptor (Homo sapiens) (UniProt P04150).
T1 sequence (whole entry): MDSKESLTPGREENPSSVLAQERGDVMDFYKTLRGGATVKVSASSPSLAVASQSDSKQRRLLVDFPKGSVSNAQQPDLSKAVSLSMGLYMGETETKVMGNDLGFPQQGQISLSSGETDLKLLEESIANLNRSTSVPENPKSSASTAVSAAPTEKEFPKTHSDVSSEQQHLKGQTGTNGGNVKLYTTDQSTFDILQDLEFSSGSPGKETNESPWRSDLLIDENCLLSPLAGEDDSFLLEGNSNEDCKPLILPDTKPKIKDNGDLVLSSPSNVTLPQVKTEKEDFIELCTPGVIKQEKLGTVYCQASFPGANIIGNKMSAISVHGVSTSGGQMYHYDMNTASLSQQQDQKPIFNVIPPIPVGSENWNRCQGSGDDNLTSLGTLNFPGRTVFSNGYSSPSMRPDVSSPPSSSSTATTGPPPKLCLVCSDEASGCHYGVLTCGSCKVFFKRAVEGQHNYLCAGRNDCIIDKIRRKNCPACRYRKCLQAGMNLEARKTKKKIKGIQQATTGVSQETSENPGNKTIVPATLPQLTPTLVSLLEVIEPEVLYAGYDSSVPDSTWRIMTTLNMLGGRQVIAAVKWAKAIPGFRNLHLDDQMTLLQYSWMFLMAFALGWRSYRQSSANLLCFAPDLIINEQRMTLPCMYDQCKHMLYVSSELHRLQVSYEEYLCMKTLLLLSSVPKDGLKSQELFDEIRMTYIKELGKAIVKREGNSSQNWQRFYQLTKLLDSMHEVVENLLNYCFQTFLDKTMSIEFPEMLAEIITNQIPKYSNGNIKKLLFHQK
In words: Percent inhibition of glucocorticoid receptor transcriptional activity at Dexamethasone EC50; not active. The assay is classed as functional.

The target of assay [2] is T2, Glucocorticoid receptor (Homo sapiens, UniProt P04150).
T2 sequence (P04150 whole entry): T1 sequence (whole entry)
In words: Cross-reactivity as binding to human glucocorticoid receptor (hGR); NA=not active. The assay is classed as functional.

For assay [3], the target named is T3, Progesterone receptor (Homo sapiens, UniProt P06401).
T3 sequence (P06401 whole entry): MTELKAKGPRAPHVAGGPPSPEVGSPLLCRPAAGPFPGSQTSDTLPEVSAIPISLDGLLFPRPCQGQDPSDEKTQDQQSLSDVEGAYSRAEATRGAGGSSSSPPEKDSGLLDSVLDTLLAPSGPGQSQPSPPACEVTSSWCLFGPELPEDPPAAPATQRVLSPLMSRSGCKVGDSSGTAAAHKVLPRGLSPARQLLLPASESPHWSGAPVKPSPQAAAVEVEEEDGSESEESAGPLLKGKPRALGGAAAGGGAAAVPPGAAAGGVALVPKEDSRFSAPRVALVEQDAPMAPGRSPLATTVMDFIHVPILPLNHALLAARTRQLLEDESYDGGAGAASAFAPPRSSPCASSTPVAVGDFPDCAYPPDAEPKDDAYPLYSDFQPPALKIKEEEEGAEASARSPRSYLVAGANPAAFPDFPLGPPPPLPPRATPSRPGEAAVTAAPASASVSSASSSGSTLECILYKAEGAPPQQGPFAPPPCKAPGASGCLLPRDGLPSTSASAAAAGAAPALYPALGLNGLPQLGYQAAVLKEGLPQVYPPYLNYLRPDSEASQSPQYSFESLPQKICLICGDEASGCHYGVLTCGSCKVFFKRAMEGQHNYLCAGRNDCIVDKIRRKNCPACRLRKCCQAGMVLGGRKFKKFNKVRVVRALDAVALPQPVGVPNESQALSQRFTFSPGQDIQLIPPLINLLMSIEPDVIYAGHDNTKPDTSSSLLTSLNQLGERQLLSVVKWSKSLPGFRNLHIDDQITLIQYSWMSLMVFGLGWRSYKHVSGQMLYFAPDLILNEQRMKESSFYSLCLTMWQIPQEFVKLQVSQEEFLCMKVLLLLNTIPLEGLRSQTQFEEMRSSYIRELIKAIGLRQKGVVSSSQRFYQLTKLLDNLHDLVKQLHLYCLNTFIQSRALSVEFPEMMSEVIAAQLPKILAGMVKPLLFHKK
In words: Human progesterone receptor (hPR) agonist activity using cotransfection assay in CV-1 cells. The assay is classed as functional, cell-based.

Assay [4] deals with Estrogen receptor (Homo sapiens) (UniProt Q92731+P03372). The assay is described as follows: Percent inhibition of estrogen receptor transcriptional activity at estradiol EC50; NA=not active. It is filed as functional.
The target in assay [5] is T4, Mineralocorticoid receptor (Homo sapiens, UniProt P08235).
T4 sequence (P08235 whole entry): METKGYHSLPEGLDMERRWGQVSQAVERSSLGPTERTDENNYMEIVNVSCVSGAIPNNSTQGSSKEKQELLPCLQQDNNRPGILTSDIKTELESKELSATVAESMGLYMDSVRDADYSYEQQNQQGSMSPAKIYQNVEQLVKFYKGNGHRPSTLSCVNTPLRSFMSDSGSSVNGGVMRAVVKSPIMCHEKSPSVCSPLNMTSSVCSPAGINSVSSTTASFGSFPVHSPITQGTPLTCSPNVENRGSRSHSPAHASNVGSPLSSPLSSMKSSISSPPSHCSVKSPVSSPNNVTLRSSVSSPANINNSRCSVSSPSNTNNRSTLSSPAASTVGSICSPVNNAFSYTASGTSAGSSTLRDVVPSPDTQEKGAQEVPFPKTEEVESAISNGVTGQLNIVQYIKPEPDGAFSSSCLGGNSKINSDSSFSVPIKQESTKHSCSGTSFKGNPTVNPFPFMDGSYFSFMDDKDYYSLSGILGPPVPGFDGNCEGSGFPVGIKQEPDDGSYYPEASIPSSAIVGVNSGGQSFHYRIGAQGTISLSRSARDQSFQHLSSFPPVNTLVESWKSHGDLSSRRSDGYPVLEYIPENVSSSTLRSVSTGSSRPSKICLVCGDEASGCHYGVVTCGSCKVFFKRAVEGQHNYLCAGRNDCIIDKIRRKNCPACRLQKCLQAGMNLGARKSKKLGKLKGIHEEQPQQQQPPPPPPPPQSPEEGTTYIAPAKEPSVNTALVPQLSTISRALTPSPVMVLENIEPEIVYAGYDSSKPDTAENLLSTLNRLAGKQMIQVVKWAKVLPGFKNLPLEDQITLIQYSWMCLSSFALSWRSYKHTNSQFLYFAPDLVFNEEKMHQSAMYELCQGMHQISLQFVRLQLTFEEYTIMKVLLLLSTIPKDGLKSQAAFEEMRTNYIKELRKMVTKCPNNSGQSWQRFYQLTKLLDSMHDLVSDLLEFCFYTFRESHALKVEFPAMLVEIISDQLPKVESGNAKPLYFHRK
In words: Cross-reactivity as binding to human mineralocorticoid receptor (hMR). The assay is classed as functional.

Assay [6] has as its target T3, Progesterone receptor. In words: Binding affinity against human progesterone receptor (hPR) in a competitive binding assay.
Another assay addresses T5, Androgen receptor (Homo sapiens, UniProt P10275).
T5 sequence (P10275 whole entry): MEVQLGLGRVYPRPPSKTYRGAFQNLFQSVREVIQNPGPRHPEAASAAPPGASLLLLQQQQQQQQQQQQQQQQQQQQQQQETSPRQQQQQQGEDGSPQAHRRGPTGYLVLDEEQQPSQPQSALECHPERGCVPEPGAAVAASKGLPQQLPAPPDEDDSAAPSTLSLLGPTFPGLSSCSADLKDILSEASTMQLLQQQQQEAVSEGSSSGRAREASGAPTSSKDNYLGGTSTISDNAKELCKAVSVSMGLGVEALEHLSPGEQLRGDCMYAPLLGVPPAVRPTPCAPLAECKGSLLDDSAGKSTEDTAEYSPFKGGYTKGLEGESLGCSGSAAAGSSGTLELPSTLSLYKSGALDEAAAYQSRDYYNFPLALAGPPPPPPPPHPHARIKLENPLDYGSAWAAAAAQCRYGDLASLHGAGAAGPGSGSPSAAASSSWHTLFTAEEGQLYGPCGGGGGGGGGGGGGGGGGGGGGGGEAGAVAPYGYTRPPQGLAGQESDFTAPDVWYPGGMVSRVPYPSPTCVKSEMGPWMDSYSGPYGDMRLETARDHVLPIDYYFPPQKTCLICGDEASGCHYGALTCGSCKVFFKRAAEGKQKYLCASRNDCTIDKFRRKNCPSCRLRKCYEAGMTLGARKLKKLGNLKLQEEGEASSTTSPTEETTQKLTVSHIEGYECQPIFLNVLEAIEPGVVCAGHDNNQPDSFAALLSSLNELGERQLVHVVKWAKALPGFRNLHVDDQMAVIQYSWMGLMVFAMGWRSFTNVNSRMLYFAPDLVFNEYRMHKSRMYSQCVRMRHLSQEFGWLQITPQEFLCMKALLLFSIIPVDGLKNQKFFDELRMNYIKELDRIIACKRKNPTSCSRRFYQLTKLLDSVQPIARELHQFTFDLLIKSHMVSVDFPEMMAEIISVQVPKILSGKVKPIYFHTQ
In words: Cross-reactivity as binding to human androgen receptor (hAR). The assay is classed as functional.

Assay [7] concerns the target T2, Glucocorticoid receptor. The assay is described as follows: Cross-reactivity as binding to human glucocorticoid receptor (hGR). The assay is classed as functional.
Assay [8] has as its target T3, Progesterone receptor. In words: Human progesterone receptor (hPR) agonist activity expressed in CV-1 cells. It is filed as functional, cell-based.
In assay [9] the target is T3, Progesterone receptor. The assay is described as follows: Antagonist activity against human progesterone receptor (hPR) using cotransfection assay in CV-1 cells. It is filed as functional, cell-based.
The target in assay [10] is T6, Mineralocorticoid receptor (Homo sapiens) (UniProt P08235).
T6 sequence (whole entry): T4 sequence (P08235 whole entry)
In words: Percent inhibition of mineralocorticoid receptor transcriptional activity at aldosterone EC50; NA=not active. The assay is classed as functional.

In assay [11] the target is T3, Progesterone receptor. In words: Human progesterone receptor (hPR) agonist activity in T47D human breast cancer cell line. It is filed as functional, cell-based.
Assay [12] deals with T4, Mineralocorticoid receptor. The assay is described as follows: Cross-reactivity as binding to human mineralocorticoid receptor (hMR); NA=not active. The assay is classed as functional.
In assay [13] the target is T3, Progesterone receptor. The assay is described as follows: Antagonist activity against human progesterone receptor (hPR) in T47D human breast cancer cell line. It is filed as functional, cell-based.
Assay [14] deals with T1, Glucocorticoid receptor (Homo sapiens). The assay is described as follows: Percent inhibition of glucocorticoid receptor transcriptional activity at Dexamethasone EC50. It is filed as functional.
For assay [15], the target named is T6, Mineralocorticoid receptor (Homo sapiens). The assay is described as follows: Percent inhibition of mineralocorticoid receptor transcriptional activity at aldosterone EC50. The assay is classed as functional.

Turning to `CC1=CC(C)(C)Nc2ccc(-c3cc(F)cc(C#N)c3)cc21`, the Efficacy entry in assay [1] and in assay [4] was “inactive” throughout. Moreover, the IC50 result at Glucocorticoid receptor [2] is “Not Active”; in assay [5], more than 1000 nM. Besides, the 50% effective concentration (EC50) entry at Progesterone receptor [3] was “Not Active”.
`CC1(C)Nc2ccc(-c3csc(C#N)c3)cc2C(C)(C)C1=O`: the affinity on Progesterone receptor [6] corresponds to a Ki of 12.4 nM. In addition, the 50% inhibitory concentration (IC50) at Androgen receptor came to 1100 nM; at Glucocorticoid receptor [7] it was 900 nM; in assay [5], 2700 nM; on Progesterone receptor [9] it was 14 nM. For the same molecule, at Progesterone receptor [8], the EC50 is 1190 nM.
For the molecule `CC1=CC(C)(C)Nc2ccc(-c3ccc(C#N)s3)cc21`, the affinity on Progesterone receptor [6] corresponds to a Ki of 55 nM. For the same molecule, the Efficacy entry in assay [10] was “inactive”. The EC50 came to 1800 nM at Progesterone receptor [11] and 2900 nM at Progesterone receptor [8]. Moreover, the IC50 entry is “Not Active” in assay [12]; 1110 nM at Androgen receptor; 3200 nM at Glucocorticoid receptor [7]; 80 nM against Progesterone receptor [13]; 27 nM at Progesterone receptor [9].
The molecule `CC1=CC(C)(C)Nc2ccc(-c3csc(C#N)c3)cc21` displayed a Ki on Progesterone receptor [6] of 3.5 nM. The Efficacy in assay [14] stood at 83%; in assay [15], 88%. Moreover, the EC50 on Progesterone receptor [11] stood at 245 nM; on Progesterone receptor [8] it was 1800 nM. Further, the IC50 on Androgen receptor turned out to be 494 nM; on Glucocorticoid receptor [7], 2600 nM; in assay [5] it was 2050 nM; at Progesterone receptor [13] it was 106 nM.
